# Data as given in US11084800B2 (Achillion Pharmaceuticals, Inc., priority 2017, dated 2021).
# Biological target: Human Factor D (Homo sapiens (Human), UniProt P00746)
# Assay: Human Factor D Assay
# Type: biochemical
# Details: Table 6; Factor D 80 nM, substrate Z-L-Lys-SBz; read-out: IC50
# In short: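 Thioester substrate Z-L-Lys-SBz (100 μM) with Ellman's reagent DTNB (100 μM) reports activity of 80 nM human serum-derived enzyme, kinetically at 405 nm over 30 min. Compound preincubated 5 min, room temperature, pH 7.5 Tris/1 M NaCl; IC50 by nonlinear fit of rates.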
# Sequence of Human Factor D (P00746 26-253): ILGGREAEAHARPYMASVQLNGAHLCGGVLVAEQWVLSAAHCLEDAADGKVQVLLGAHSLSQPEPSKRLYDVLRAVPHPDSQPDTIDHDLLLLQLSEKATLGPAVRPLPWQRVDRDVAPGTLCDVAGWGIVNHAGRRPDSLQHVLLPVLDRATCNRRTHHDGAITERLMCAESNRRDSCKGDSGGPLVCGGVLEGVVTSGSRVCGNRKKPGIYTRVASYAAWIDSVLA
row,Compound,IC50 [nM]
1,"Cc1ncc(-c2ccc3c(c2)c(C(C)O)nn3CC(=O)N2[C@H](C(=O)Nc3nc(Br)ccc3C)C[C@@]3(C)C[C@@H]23)cn1 (stereo partly drawn) [Compound 72, (1R,3S,5R)-N-(6-bromo-3-methylpyridin-2-yl)-2-(2-(3-(1-hydroxyethyl)-5-(2-methylpyrimidin-5-yl)-1H-indazol-1-yl)acetyl)-5-methyl-2-azabicyclo[3.1.0]hexane-3-carboxamide]",1000 to 10000
2,"CC(=O)c1nn(CC(=O)N2[C@H](C(=O)Nc3nc(Br)cc4ccccc34)C[C@@]3(C)C[C@@H]23)c2ccc(-c3cnc(C)nc3)cc12 [Compound 73, (1R,3S,5R)-2-(2-(3-Acetyl-5-(2-methylpyrimidin-5-yl)-1H-indazol-1-yl)acetyl)-N-(3-bromoisoquinolin-1-yl)-5-methyl-2-azabicyclo[3.1.0]hexane-3-carboxamide]",< 1000
3,"CC(=O)c1nn(CC(=O)N2[C@H](C(=O)Nc3nc(Br)ccc3C)C[C@@]3(CN(C)C)C[C@@H]23)c2c(CF)cc(-c3cnc(C)nc3)cc12 [Compound 74, (1R,3S,5R)-2-(2-(3-Acetyl-7-(fluoromethyl)-5-(2-methylpyrimidin-5-yl)-1H-indazol-1-yl)acetyl)-N-(6-bromo-3-methylpyridin-2-yl)-5-((dimethylamino)methyl)-2-azabicyclo[3.1.0]hexane-3-carboxamide]",< 1000
4,"CC(=O)c1nn(CC(=O)N2[C@H]3C[C@@]3(CN(C)C)C[C@H]2C(=O)Nc2nc(Br)ccc2C)c2c(CF)cc(-c3cnc(C)nc3)cc12 [Compound 75, (1S,3S,5S)-2-(2-(3-Acetyl-7-(fluoromethyl)-5-(2-methylpyrimidin-5-yl)-1H-indazol-1-yl)acetyl)-N-(6-bromo-3-methylpyridin-2-yl)-5-((dimethylamino)methyl)-2-azabicyclo[3.1.0]hexane-3-carboxamide]",< 1000
5,"CC(=O)c1nn(CC(=O)N2C[C@@](F)(CF)C[C@H]2C(=O)Nc2nc(Br)ccc2C)c2c(CF)cc(-c3cnc(C)nc3)cc12 [Compound 76, (2S,4R)-1-(2-(3-acetyl-7-(fluoromethyl)-5-(2-methylpyrimidin-5-yl)-1H-indazol-1-yl)acetyl)-N-(6-bromo-3-methylpyridin-2-yl)-4-fluoro-4-(fluoromethyl)pyrrolidine-2-carboxamide]",< 1000
6,"CC(=O)c1nn(CC(=O)N2[C@H]3C[C@@]3(C)C[C@H]2C(=O)Nc2nc(Br)ccc2C)c2c(C(F)(F)F)cc(-c3cnc(C)nc3)cc12 [Compound 77, (1S,3S,5S)-2-(2-(3-acetyl-5-(2-methylpyrimidin-5-yl)-7-(trifluoromethyl)-1H-indazol-1-yl)acetyl)-N-(6-bromo-3-methylpyridin-2-yl)-5-methyl-2-azabicyclo[3.1.0]hexane-3-carboxamide]",> 10000
7,"CC(=O)c1nn(CC(=O)N2[C@H](C(=O)Nc3nc(Br)ccc3C)C[C@@]3(CN4CCN(C(C)=O)CC4)C[C@@H]23)c2ccc(-c3cnc(C)nc3)cc12 [Compound 78, (1R,3S,5R)-2-(2-(3-acetyl-5-(2-methylpyrimidin-5-yl)-1H-indazol-1-yl)acetyl)-5-((4-acetylpiperazin-1-yl)methyl)-N-(6-bromo-3-methylpyridin-2-yl)-2-azabicyclo[3.1.0]hexane-3-carboxamide]",< 1000
8,"CC(=O)c1nn(CC(=O)N2[C@H]3C[C@@]3(CN3CCN(C(C)=O)CC3)C[C@H]2C(=O)Nc2nc(Br)ccc2C)c2ccc(-c3cnc(C)nc3)cc12 [Compound 79, (1S,3S,5S)-2-(2-(3-acetyl-5-(2-methylpyrimidin-5-yl)-1H-indazol-1-yl)acetyl)-5-((4-acetylpiperazin-1-yl)methyl)-N-(6-bromo-3-methylpyridin-2-yl)-2-azabicyclo[3.1.0]hexane-3-carboxamide]",1000 to 10000
9,"CC(=O)c1nn(CC(=O)N2[C@H](C(=O)NCCC(C)(C)C)C[C@@]3(C)C[C@@H]23)c2c(C)cc(-c3cnc(C)nc3)cc12 [Compound 80, (1R,3S,5R)-2-(2-(3-Acetyl-7-methyl-5-(2-methylpyrimidin-5-yl)-1H-indazol-1-yl)acetyl)-N-(3,3-dimethylbutyl)-5-methyl-2-azabicyclo[3.1.0]hexane-3-carboxamide]",< 1000
10,"CC(=O)c1nn(CC(=O)N2[C@H](C(=O)NCCOC(F)(F)F)C[C@@]3(C)C[C@@H]23)c2c(C)cc(-c3cnc(C)nc3)cc12 [Compound 81, (1R,3S,5R)-2-(2-(3-Acetyl-7-methyl-5-(2-methylpyrimidin-5-yl)-1H-indazol-1-yl)acetyl)-5-methyl-N-(2-(trifluoromethoxy)ethyl)-2-azabicyclo[3.1.0]hexane-3-carboxamide]",< 1000
11,"COc1cccc(NC(=O)[C@@H]2C[C@@]3(C)C[C@H]3N2C(=O)Cn2nc(C(C)=O)c3cc(-c4cnc(C)nc4)cc(C)c32)n1 [Compound 82, (1R,3S,5R)-2-(2-(3-Acetyl-7-methyl-5-(2-methylpyrimidin-5-yl)-1H-indazol-1-yl)acetyl)-N-(6-methoxypyridin-2-yl)-5-methyl-2-azabicyclo[3.1.0]hexane-3-carboxamide]",< 1000
12,"CC(=O)c1nn(CC(=O)N2C[C@H](F)C[C@H]2C(=O)Nc2cccc(O)n2)c2ccc(-c3cnc(C)nc3)cc12 [Compound 83, (2S,4R)-1-(2-(3-Acetyl-5-(2-methylpyrimidin-5-yl)-1H-indazol-1-yl)acetyl)-4-fluoro-N-(6-hydroxypyridin-2-yl)pyrrolidine-2-carboxamide]",1000 to 10000
13,"COCc1ccc(Br)c(NC(=O)[C@@H]2C[C@@]3(C)C[C@H]3N2C(=O)Cn2nc(C(C)=O)c3cc(-c4cnc(C)nc4)cc(COC)c32)n1 [Compound 86, (1R,3S,5R)-2-(2-(3-acetyl-7-(methoxymethyl)-5-(2-methylpyrimidin-5-yl)-1H-indazol-1-yl)acetyl)-N-(3-bromo-6-(methoxymethyl)pyridin-2-yl)-5-methyl-2-azabicyclo[3.1.0]hexane-3-carboxamide]",> 10000
14,"CC(=O)c1nn(CC(=O)N2[C@H](C(=O)Nc3nc(Br)ccc3C)C[C@@]3(CN4CCNCC4)C[C@@H]23)c2c(C)cc(-c3cnc(C)nc3)cc12 [Compound 88, (1R,3S,5R)-2-(2-(3-Acetyl-7-methyl-5-(2-methylpyrimidin-5-yl)-1H-indazol-1-yl)acetyl)-N-(6-bromo-3-methylpyridin-2-yl)-5-(piperazin-1-ylmethyl)-2-azabicyclo[3.1.0]hexane-3-carboxamide]",< 1000
15,"CC(=O)c1nn(CC(=O)N2[C@H](C(=O)Nc3nc(Br)ccc3C)C[C@@]3(CN4CC5(CCC5)C4)C[C@@H]23)c2c(C)cc(-c3cnc(C)nc3)cc12 [Compound 89, (1R,3S,5R)-5-(2-Azaspiro[3.3]heptan-2-ylmethyl)-2-(2-(3-acetyl-7-methyl-5-(2-methylpyrimidin-5-yl)-1H-indazol-1-yl)acetyl)-N-(6-bromo-3-methylpyridin-2-yl)-2-azabicyclo[3.1.0]hexane-3-carboxamide]",< 1000
16,"CC(=O)c1nn(CC(=O)N2[C@H]3C[C@@]3(C)C[C@H]2C(=O)Nc2nc(Br)ccc2C)c2c(C3CC3)cc(-c3cnc(C)nc3)cc12 [Compound 90, (1S,3S,5S)-2-(2-(3-acetyl-7-cyclopropyl-5-(2-methylpyrimidin-5-yl)-1H-indazol-1-yl)acetyl)-N-(6-bromo-3-methylpyridin-2-yl)-5-methyl-2-azabicyclo[3.1.0]hexane-3-carboxamide]",< 1000
17,CC(=O)c1nn(CC(=O)N2[C@H](C(=O)Nc3nc(Br)ccc3CN(C)C)C[C@@]3(C)C[C@@H]23)c2ccc(-c3cnc(C)nc3)cc12 [Compound 91],< 1000
